One assay has as its target T1, STAT6 (Homo sapiens, UniProt P42226).
T1 construct: These cells express endogenous STAT6; host or cells: HeLa LgBiT clone 4.14 (CRISPR knock-in of HiBiT into the endogenous STAT6 gene)
T1 sequence (P42226 1-847): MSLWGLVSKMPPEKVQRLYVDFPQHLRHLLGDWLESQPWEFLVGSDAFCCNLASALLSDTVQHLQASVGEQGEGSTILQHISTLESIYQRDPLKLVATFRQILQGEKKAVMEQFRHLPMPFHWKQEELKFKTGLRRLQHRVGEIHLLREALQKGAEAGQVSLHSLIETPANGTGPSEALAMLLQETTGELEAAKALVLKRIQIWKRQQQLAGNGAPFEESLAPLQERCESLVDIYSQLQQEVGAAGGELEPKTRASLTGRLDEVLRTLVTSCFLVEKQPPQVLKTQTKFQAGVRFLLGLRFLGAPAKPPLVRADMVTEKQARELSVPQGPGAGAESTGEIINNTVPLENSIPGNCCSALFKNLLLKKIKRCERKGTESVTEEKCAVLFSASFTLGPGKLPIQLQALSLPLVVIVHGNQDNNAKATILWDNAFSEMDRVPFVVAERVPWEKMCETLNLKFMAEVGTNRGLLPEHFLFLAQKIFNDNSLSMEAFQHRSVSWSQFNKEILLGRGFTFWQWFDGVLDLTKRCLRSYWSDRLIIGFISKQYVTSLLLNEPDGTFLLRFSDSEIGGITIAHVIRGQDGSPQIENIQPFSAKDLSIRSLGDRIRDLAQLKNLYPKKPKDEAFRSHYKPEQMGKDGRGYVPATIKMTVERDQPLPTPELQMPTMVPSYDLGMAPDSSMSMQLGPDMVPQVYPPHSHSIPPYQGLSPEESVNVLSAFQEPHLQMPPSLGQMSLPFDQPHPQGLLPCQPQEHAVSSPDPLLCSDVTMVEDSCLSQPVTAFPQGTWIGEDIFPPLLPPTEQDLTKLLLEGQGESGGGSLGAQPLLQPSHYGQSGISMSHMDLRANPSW
As to the kind of experiment: STAT6 Degrader Assay (HiBiT based, HeLa LgBiT clone 4.14 cells). Format: cell-based. To be noted: for DC50: geometric mean across assay runs and compound batches, DC50 provided for test compounds with >80% Emax, read-out: STAT6 degradation DC50. In short, it runs like this: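 DC50 (nM) comes from NanoBiT luminescence of HiBiT-knock-in STAT6 in HeLa LgBiT clone 4.14 cells, treated 4-24 h at 37° C. Luminescence reflects non-degraded STAT6, with 50 μM terfenadine wells taken as full degradation.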

For assay [1], the system named is Eotaxin-3 (CCL26) release. As to the kind of experiment: Human Whole Blood Eotaxin-3 Assay (IL-4 stimulated). The settings on record: geometric mean across assay runs and compound batches, EC50 provided for test compounds with >80% Emax. Format: cell-based. In short, it runs like this: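 Lithium-heparin human whole blood preincubated 2 h at 37 °C with compounds (4-fold dilutions, triplicate, 0.5% DMSO final). Then stimulated with 400 pM final recombinant human IL-4 for 48 h. Eotaxin-3 in supernatant quantified by MSD immunoassay.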

Molecules are shown by their SMILES.

As to `C[C@@H](c1cc2c(-n3ccc4c(c3=O)CCN4)ccnc2n1C)N1CCC(c2ccc(C(=O)N3CCC(CN4CCN(c5ccc(NC6CCC(=O)NC6=O)cc5F)CC4)CC3)cc2)CC1` (stereo partly drawn) [Example 2c29, 3-((3-fluoro-4-(4-((1-(4-(1-((S)-1-(1-methyl-4-(4-oxo-1,2,3,4-tetrahydro-5H-pyr-rolo[3,2-c]pyridin-5-yl)-1H-pyrrolo[2,3-b]pyridin-2-yl)-ethyl)piperidin-4-yl)benzoyl)-piperidin-4-yl)methyl)piper-azin-1-yl)phenyl)amino)piper-idine-2,6-dione], the maximum response (Emax) at STAT6 (HeLa, maximal STAT6 degradation) was in the range of 70 to 80%. Further, in assay [1] (Homo sapiens), it took 15.7 nM to reach a half-maximal effect (EC50).

With `Cc1cc(C(=O)N2CCC(CN3CCN(c4ccc(NC5CCC(=O)NC5=O)cc4F)CC3)CC2)cc(F)c1C1=CCN([C@@H](C)c2cc3c(-n4ccc5c(c4=O)CCN5)ccnc3n2C)CC1` (stereo partly drawn) [Example 2g18, 3-((3-fluoro-4-(4-((1-(3-fluoro-5-methyl-4-(1-((S)-1-(1-methyl-4-(4-oxo-1,2,3,4-tetrahydro-5H-pyrrolo[3,2-c]pyridin-5-yl)-1H-pyrrolo[2,3-b]pyridin-2-yl)ethyl)-1,2,3,6-tetrahydropyridin-4-yl)benzo-yl)piperidin-4-yl)methyl)-piperazin-1-yl)phenyl)amino)-piperidine-2,6-dione], the 50% degradation concentration (DC50) on STAT6 is 3.1 nM. The same compound gave an EC50 in assay [1] (Homo sapiens) of 5.5 nM.

As to `CNc1ccn(-c2ccnc3c2cc([C@H](C)N2CC=C(c4c(C)cc(C(=O)N5CCn6nc(CN7CCC(c8ccc(NC9CCC(=O)NC9=O)c(OC)c8)CC7)c(Cl)c6C5)cc4F)CC2)n3C)c(=O)c1` (stereo partly drawn) [Example 2g52, 3-((4-(1-((3-chloro-5-(3-fluoro-5-methyl-4-(1-((S)-1-(1-methyl-4-(4-(methyl-amino)-2-oxopyridin-1(2H)-yl)-1H-pyrrolo[2,3-b]pyridin-2-yl)ethyl)-1,2,3,6-tetrahydro-pyridin-4-yl)benzoyl)-4,5,6,7-tetrahydropyrazolo[1,5-a]pyrazin-2-yl)methyl)piperi-din-4-yl)-2-methoxyphenyl)-amino)piperidine-2,6-dione], at STAT6, the DC50 was 0.8 nM. Besides, the response in assay [1] (Homo sapiens) was half-maximal at 0.3 nM (EC50).

Consider `CNc1ccn(-c2ccnc3c2cc(CN2CCC(c4c(F)cc(C(=O)N5CCn6nc(CN7CCC(c8ccc(NC9CCC(=O)NC9=O)cc8F)CC7)cc6C5)cc4F)CC2)n3C)c(=O)c1` (centres unmarked) [Example 2g100, 3-((4-(1-((5-(3,5-difluoro-4-(1-((1-methyl-4-(4-(methyl-amino)-2-oxopyridin-1(2H)-yl)-1H-pyrrolo[2,3-b]pyridin-2-yl)methyl)piperidin-4-yl)-benzoyl)-4,5,6,7-tetrahydro-pyrazolo[1,5-a]pyrazin-2-yl)-methyl)piperidin-4-yl)-3-fluorophenyl)amino)piperi-dine-2,6-dione], for which the 50% degradation concentration (DC50) at STAT6 was 1.2 nM. The same compound gave a half-maximal effective concentration (EC50) in assay [1] (Homo sapiens) of 1.8 nM.

Regarding `CNc1ccn(-c2ccnc3c2cc(CN2CCC(c4c(F)cc(C(=O)N5CCC(CN6CCN(c7ccc(N[C@@H]8CCC(=O)NC8=O)cc7F)CC6)CC5)cc4F)CC2)n3C)c(=O)c1` (single isomer, unassigned) [Example 2g57], the half-maximal degradation concentration (DC50) on STAT6 came out at 9.3 nM. The same compound gave an EC50 in assay [1] (Homo sapiens) of 50.3 nM.

Consider `CNc1cc(=O)n(-c2ccnc3c2cc([C@H](C)N2CC=C(c4c(C)cc(C(=O)N5CCn6nc(CN7CCC(c8ccc(NC9CCC(=O)NC9=O)c(OC)c8)CC7)cc6C5)cc4F)CC2)n3C)cc1F` (stereo partly drawn) [Example 2g90, 3-((4-(1-((5-(3-fluoro-4-(1-((S)-1-(4-(5-fluoro-4-(meth-ylamino)-2-oxopyridin-1(2H)-yl)-1-methyl-1H-pyrrolo[2,3-b]pyridin-2-yl)ethyl)-1,2,3,6-tetrahydropyridin-4-yl)-5-methylbenzoyl)-4,5,6,7-tetra-hydropyrazolo[1,5-a]pyrazin-2-yl)methyl)piperidin-4-yl)-2-methoxyphenyl)amino)-piperidine-2,6-dione], for which the half-maximal degradation concentration (DC50) at STAT6 amounted to 0.2 nM. Moreover, the midpoint of the response in assay [1] (Homo sapiens), the EC50, lay at 0.6 nM.

As for `CNc1cc(=O)n(-c2ccnc3c2cc(CN2CCC(c4c(F)cc(C(=O)N5CCn6nc(CN7CCC(c8ccc(N[C@@H]9CCC(=O)NC9=O)c(OC)c8)CC7)cc6C5)cc4F)CC2)n3C)cc1F` (single isomer, unassigned) [Example 2g124], the half-maximal degradation concentration (DC50) on STAT6 amounted to 2.5 nM. For the same compound, in assay [1] (Homo sapiens), the concentration giving a half-maximal response (EC50) turned out to be 5.7 nM.

As to `C[C@@H](c1cc2c(-n3ccc4c(c3=O)CCN4)ccnc2n1C)N1CCC(c2ccc(C(=O)N3CCN(CC4CCN(c5ccc(NC6CCC(=O)NC6=O)cc5F)CC4)CC3)cc2)CC1` (stereo partly drawn) [Example 2g53, 3-((3-fluoro-4-(4-((4-(4-(1-((S)-1-(1-methyl-4-(4-oxo-1,2,3,4-tetrahydro-5H-pyrrolo [3,2-c]pyridin-5-yl)-1H-pyrrolo[2,3-b]pyridin-2-yl)-ethyl)piperidin-4-yl)benzoyl)-piperazin-1-yl)methyl)piperi-din-1-yl)phenyl)amino)piperi-dine-2,6-dione], the DC50 at STAT6 stood at 47.8 nM. Besides, in assay [1], the EC50 was found to be 63.1 nM.

Turning to `CNc1ccn(-c2ccnc3c2cc([C@@H](C)N2CCC(c4c(F)cc(C(=O)N5CCn6nc(CN7CCC(c8ccc(NC9CCC(=O)NC9=O)cc8F)CC7)cc6C5)cc4F)CC2)n3C)c(=O)c1` (stereo partly drawn) [Example 2g110, 3-((4-(1-((5-(3,5-difluoro-4-(1-((R)-1-(1-methyl-4-(4-(methylamino)-2-oxopyridin-1(2H)-yl)-1H-pyrrolo[2,3-b]pyridin-2-yl)ethyl)piperidin-4-yl)benzoyl)-4,5,6,7-tetra-hydropyrazolo[1,5-a]pyrazin-2-yl)methyl)piperidin-4-yl)-3-fluorophenyl)amino)piperi-dine-2,6-dione], the DC50 on STAT6 was 10.5 nM. For the same compound, the EC50 in assay [1] (Homo sapiens) worked out at 23.3 nM.

Take `Cn1c(CN2CCC(c3c(F)cc(C(=O)N4CCC(CN5CCN(c6ccc(NC7CCC(=O)NC7=O)cc6F)CC5)CC4)cc3F)CC2)cc2c(-n3ccc4c(c3=O)CCN4)ccnc21` (centres unmarked) [Example 2g35, 3-((4-(4-((1-(3,5-difluoro-4-(1-((1-methyl-4-(4-oxo-1,2,3,4-tetrahydro-5H-pyrrolo [3,2-c]pyridin-5-yl)-1H-pyrrolo[2,3-b]pyridin-2-yl)-methyl)piperidin-4-yl)benzo-yl)piperidin-4-yl)methyl)-piperazin-1-yl)-3-fluorophen-yl)-amino)piperidine-2,6-dione]: at STAT6, the DC50 came out at 16 nM. The same compound had an EC50 in assay [1] (Homo sapiens) of 73.2 nM.

For `CNc1ccn(-c2ccnc3c2cc(CN2CCC(c4c(F)cc(C(=O)N5CCC(CN6CCN(c7ccc(NC8CCC(=O)NC8=O)cc7F)CC6)CC5)cc4F)CC2)n3C)c(=O)c1` (centres unmarked) [Example 2g107, 3-((4-(4-((1-(3,5-difluoro-4-(1-((1-methyl-4-(4-(methyl-amino)-2-oxopyridin-1(2H)-yl)-1H-pyrrolo[2,3-b]pyridin-2-yl)methyl)piperidin-4-yl)-benzoyl)piperidin-4-yl)meth-yl)piperazin-1-yl)-3-fluoro-phenyl)amino)piperidine-2,6-dione], the DC50 at STAT6 was 25.3 nM. The compound further came in with an EC50 in assay [1] (Homo sapiens) of 26.8 nM.

Turning to `CNc1cc(=O)n(-c2ccnc3c2cc([C@H](C)N2CC=C(c4c(C)cc(C(=O)N5CCC(CN6CCN(c7ccc(NC8CCC(=O)NC8=O)cc7F)CC6)CC5)cc4F)CC2)n3C)cc1F` (stereo partly drawn) [Example 2g91, 3-((3-fluoro-4-(4-((1-(3-fluoro-4-(1-((S)-1-(4-(5-fluoro-4-(methylamino)-2-oxopyridin-1(2H)-yl)-1-methyl-1H-pyrrolo[2,3-b]pyridin-2-yl)ethyl)-1,2,3,6-tetrahydropyridin-4-yl)-5-methyl-benzoyl)piperidin-4-yl)methyl)piperazin-1-yl)-phenyl)amino)piperidine-2,6-dione], the DC50 on STAT6 worked out at 7 nM. Moreover, a half-maximal effect in assay [1] (Homo sapiens) (EC50) was put at 9.2 nM.

Take `Cc1cc(C(=O)N2CCC(CN3CCN(c4ccc(NC5CCC(=O)NC5=O)cc4F)CC3)CC2)cc(F)c1C1=CCN(Cc2cc3c(-n4ccc5c(c4=O)CCN5)ccnc3n2C)CC1` (centres unmarked) [Example 2g59, 3-((3-fluoro-4-(4-((1-(3-fluoro-5-methyl-4-(1-((1-methyl-4-(4-oxo-1,2,3,4-tetrahydro-5H-pyrrolo[3,2-c]pyridin-5-yl)-1H-pyrrolo [2,3-b]pyridin-2-yl)methyl)-1,2,3,6-tetrahydropyridin-4-yl)benzoyl)piperidin-4-yl)-methyl)piperazin-1-yl)phen-yl)amino)piperidine-2,6-dione]: the 50% degradation concentration (DC50) on STAT6 is 6.1 nM. This compound also came in with a concentration for a half-maximal effect (EC50) in assay [1] (Homo sapiens) of 20.4 nM.

Broadly, the Emax is the greatest response seen or fitted, relative to the assay's reference. By EC50 is commonly meant the midpoint of the concentration-response curve. Read a high EC50 as lower potency in that assay. Usually DC50 stands for the midpoint of the concentration-degradation curve.

(Values after patent US20250320205A1, “STAT6 DEGRADERS” (Gilead Sciences, Inc., priority 2024, published 2025).)
